ChEMBL document CHEMBL3352338, “Development and biological evaluation of potent and selective c-KIT(D816V) inhibitors” (J Med Chem, 2014)
The source made the active and inactive calls. The rule behind the calls is not given here.

What was measured:
[1] = target: Dual specificity mitogen-activated protein kinase kinase 2 (Homo sapiens) (UniProt P36507); assay: Inhibition of MEK2 (unknown origin) at 1 uM by KINOMEscanning assay relative to control; values are per cent of control
[2] = target: 5'-AMP-activated protein kinase catalytic subunit alpha-1 (Homo sapiens) (UniProt Q13131); assay: Inhibition of AMPKalpha 1 (unknown origin) at 1 uM by KINOMEscanning assay relative to control; values are per cent of control
[3] = target: Fibroblast growth factor receptor 1 (Homo sapiens) (UniProt P11362); assay: Inhibition of FGFR1 (unknown origin) at 1 uM by KINOMEscanning assay relative to control; values are per cent of control
Chain of Fibroblast growth factor receptor 1 (Homo sapiens) (P11362 22-822 limits assumed): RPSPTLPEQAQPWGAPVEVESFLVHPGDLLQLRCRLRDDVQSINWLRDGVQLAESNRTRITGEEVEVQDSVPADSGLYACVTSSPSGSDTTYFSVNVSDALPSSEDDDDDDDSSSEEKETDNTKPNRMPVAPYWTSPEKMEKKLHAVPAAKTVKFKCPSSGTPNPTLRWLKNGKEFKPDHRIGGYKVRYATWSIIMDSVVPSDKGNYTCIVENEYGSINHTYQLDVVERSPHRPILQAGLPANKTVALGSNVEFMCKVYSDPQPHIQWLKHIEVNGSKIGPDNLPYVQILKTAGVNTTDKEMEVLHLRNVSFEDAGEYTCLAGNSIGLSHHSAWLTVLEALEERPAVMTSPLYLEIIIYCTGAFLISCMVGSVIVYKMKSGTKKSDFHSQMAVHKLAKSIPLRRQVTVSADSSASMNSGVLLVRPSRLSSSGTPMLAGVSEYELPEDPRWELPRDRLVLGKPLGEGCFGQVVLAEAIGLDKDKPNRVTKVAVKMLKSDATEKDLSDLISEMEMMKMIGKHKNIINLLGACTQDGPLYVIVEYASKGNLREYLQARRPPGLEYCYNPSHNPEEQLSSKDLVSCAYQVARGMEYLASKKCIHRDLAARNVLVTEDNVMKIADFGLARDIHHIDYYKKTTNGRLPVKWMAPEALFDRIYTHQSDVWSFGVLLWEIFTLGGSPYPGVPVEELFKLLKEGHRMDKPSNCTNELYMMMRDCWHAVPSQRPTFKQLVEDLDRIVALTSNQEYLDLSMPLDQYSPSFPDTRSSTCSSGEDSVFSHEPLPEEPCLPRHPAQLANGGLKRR

[4] = target: Platelet-derived growth factor receptor alpha (Homo sapiens) (UniProt P16234); assay: Inhibition of PDGFRalpha (unknown origin) at 1 uM by KINOMEscanning assay relative to control; values are per cent of control
[5] = system: Serine/threonine-protein kinase B-raf (Homo sapiens), P15056 [V600E]; assay: Inhibition of BRAF V600E mutant (unknown origin) at 1 uM by KINOMEscanning assay relative to control; values are per cent of control
[6] = target: Mitogen-activated protein kinase 3 (Homo sapiens) (UniProt P27361); assay: Inhibition of ERK1 (unknown origin) at 1 uM by KINOMEscanning assay relative to control; values are per cent of control
Chain of Mitogen-activated protein kinase 3 (Homo sapiens) (P27361 whole entry): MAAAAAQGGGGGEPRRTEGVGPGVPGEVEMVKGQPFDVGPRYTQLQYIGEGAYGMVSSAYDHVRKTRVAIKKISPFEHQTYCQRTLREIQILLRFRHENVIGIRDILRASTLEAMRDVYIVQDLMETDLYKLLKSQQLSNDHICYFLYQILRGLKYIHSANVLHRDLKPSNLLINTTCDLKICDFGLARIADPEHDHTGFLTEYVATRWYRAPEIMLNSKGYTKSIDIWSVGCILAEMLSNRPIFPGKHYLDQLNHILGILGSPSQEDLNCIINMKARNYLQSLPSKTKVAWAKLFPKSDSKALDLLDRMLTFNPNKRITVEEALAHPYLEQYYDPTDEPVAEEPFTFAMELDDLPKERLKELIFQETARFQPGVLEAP

[7] = target: RAC-alpha serine/threonine-protein kinase (Homo sapiens) (UniProt P31749); assay: Inhibition of AKT1 (unknown origin) at 1 uM by KINOMEscanning assay relative to control; values are per cent of control
[8] = system: Hepatocyte growth factor receptor (Homo sapiens), P08581 [M1250T]; assay: Inhibition of MET M1250T mutant (unknown origin) at 1 uM by KINOMEscanning assay relative to control; values are per cent of control
[9] = target: Mitogen-activated protein kinase 14 (Homo sapiens) (UniProt Q16539); assay: Inhibition of p38alpha (unknown origin) at 1 uM by KINOMEscanning assay relative to control; values are per cent of control
[10] = target: Vascular endothelial growth factor receptor 2 (Homo sapiens) (UniProt P35968); assay: Inhibition of VEGFR2 (unknown origin) at 1 uM by KINOMEscanning assay relative to control; values are per cent of control
Chain of Vascular endothelial growth factor receptor 2 (Homo sapiens) (P35968 whole entry): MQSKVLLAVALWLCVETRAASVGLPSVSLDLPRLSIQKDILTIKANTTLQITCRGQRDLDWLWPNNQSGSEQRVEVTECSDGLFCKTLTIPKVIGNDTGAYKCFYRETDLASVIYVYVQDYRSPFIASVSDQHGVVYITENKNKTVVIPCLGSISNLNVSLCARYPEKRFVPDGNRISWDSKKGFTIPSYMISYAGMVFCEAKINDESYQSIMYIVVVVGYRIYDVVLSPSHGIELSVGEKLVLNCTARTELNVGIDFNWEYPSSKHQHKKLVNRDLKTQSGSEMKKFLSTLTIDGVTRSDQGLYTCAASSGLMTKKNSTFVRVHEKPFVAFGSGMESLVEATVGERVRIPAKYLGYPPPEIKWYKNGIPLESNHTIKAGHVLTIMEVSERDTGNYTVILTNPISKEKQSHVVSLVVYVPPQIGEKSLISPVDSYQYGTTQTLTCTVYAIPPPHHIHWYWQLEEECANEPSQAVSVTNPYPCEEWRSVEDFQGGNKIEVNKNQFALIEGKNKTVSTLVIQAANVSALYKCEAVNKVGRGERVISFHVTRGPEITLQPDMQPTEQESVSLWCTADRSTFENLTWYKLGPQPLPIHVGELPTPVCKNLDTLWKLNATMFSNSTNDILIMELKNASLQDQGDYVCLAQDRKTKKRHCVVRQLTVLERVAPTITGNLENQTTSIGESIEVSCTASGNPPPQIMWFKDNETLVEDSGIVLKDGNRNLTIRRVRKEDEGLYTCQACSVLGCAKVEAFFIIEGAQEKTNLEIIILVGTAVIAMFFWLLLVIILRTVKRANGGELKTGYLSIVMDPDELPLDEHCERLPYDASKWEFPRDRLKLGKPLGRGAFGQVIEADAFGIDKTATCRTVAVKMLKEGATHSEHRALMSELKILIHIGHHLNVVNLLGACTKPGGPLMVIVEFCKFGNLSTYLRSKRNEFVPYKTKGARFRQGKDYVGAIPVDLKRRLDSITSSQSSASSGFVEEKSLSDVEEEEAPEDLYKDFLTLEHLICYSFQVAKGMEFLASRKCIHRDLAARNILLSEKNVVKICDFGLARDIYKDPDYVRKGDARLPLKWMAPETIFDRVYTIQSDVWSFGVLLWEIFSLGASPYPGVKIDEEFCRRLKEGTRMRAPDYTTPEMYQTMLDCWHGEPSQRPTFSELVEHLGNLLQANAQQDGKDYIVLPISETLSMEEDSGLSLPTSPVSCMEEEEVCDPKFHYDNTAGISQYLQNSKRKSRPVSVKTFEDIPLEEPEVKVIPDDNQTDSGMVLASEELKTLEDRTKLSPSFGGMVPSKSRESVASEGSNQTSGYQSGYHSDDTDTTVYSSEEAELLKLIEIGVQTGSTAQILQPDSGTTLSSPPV

[11] = target: T1, 3-phosphoinositide-dependent protein kinase 1 (Homo sapiens) (UniProt O15530); assay: Inhibition of PDPK1 (unknown origin) at 1 uM by KINOMEscanning assay relative to control; values are per cent of control
T1 sequence (whole entry): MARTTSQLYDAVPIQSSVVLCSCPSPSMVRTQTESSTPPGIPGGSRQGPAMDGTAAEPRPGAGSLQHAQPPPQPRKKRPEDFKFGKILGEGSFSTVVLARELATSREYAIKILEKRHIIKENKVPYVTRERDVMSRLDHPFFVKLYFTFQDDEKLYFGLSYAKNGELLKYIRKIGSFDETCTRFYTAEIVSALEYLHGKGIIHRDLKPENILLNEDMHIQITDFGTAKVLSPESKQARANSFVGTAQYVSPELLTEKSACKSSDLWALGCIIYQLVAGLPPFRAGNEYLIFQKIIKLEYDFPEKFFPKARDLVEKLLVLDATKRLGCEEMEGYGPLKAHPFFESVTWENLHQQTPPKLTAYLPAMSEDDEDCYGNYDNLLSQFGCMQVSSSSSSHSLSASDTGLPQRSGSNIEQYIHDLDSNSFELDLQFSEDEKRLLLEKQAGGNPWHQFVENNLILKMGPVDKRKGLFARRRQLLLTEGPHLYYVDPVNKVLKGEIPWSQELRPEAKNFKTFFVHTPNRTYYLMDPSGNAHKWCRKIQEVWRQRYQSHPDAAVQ

[12] = target: Calcium/calmodulin-dependent protein kinase type 1 (Homo sapiens) (UniProt Q14012); assay: Inhibition of CAMK1 (unknown origin) at 1 uM by KINOMEscanning assay relative to control; values are per cent of control
Chain of Calcium/calmodulin-dependent protein kinase type 1 (Homo sapiens) (Q14012 whole entry, looked up): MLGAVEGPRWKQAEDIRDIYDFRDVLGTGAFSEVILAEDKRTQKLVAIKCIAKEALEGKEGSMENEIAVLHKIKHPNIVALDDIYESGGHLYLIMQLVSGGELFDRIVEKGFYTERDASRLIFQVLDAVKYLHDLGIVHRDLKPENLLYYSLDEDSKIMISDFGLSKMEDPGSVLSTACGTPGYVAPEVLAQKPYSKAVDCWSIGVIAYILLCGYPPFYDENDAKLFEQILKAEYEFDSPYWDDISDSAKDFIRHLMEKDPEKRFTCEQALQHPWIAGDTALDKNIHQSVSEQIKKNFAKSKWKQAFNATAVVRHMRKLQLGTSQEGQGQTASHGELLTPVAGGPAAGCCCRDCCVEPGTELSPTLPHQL

[13] = target: BDNF/NT-3 growth factors receptor (Homo sapiens) (UniProt Q16620); assay: Inhibition of TRKB (unknown origin) at 1 uM by KINOMEscanning assay relative to control; values are per cent of control
[14] = target: Epidermal growth factor receptor (Homo sapiens) (UniProt P00533); assay: Inhibition of EGFR (unknown origin) at 1 uM by KINOMEscanning assay relative to control; values are per cent of control
[15] = target: Serine/threonine-protein kinase PAK 1 (Homo sapiens) (UniProt Q13153); assay: Inhibition of PAK1 (unknown origin) at 1 uM by KINOMEscanning assay relative to control; values are per cent of control
[16] = target: Mast/stem cell growth factor receptor Kit (Homo sapiens, UniProt P10721, D816V); assay: Inhibition of c-KIT D816V mutant (unknown origin)
Chain of Mast/stem cell growth factor receptor Kit (Homo sapiens, UniProt P10721, D816V) (P10721 26-976 D816V limits assumed): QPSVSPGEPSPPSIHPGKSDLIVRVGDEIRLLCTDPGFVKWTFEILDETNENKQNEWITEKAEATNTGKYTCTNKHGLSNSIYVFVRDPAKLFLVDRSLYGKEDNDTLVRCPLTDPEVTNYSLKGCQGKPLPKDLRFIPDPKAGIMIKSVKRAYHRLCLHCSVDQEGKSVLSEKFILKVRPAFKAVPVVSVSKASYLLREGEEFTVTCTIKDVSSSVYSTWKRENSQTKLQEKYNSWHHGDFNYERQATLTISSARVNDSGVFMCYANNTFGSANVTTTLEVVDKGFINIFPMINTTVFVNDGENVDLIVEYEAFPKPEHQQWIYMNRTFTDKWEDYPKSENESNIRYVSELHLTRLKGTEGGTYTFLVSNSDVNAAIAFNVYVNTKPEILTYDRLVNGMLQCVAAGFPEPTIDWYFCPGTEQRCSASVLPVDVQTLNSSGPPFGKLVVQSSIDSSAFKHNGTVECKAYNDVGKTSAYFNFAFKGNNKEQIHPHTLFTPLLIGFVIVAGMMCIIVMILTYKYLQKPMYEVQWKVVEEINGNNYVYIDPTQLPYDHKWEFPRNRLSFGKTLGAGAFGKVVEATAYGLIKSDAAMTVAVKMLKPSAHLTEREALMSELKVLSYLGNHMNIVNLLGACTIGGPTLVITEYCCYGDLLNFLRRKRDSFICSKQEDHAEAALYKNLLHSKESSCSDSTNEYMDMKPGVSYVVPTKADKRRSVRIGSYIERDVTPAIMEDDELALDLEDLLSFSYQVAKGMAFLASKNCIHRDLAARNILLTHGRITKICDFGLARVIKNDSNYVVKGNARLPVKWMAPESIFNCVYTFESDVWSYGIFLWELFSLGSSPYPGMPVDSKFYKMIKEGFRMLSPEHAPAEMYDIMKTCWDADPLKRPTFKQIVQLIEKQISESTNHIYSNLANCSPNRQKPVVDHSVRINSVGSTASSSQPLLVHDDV

[17] = target: Mast/stem cell growth factor receptor Kit (Homo sapiens, UniProt P10721); conditions: 5 uM
Description: Inhibition of c-KIT in imatinib-resistant human HMC-1.2 cells assessed as suppression of STAT3 phosphorylation at 5 uM after 1 hr by Western immunoblotting analysis

[18] = target: T2, Serine/threonine-protein kinase 17A (Homo sapiens) (UniProt Q9UEE5); assay: Inhibition of DRAK1 (unknown origin) at 1 uM by KINOMEscanning assay relative to control; values are per cent of control
T2 sequence (whole entry): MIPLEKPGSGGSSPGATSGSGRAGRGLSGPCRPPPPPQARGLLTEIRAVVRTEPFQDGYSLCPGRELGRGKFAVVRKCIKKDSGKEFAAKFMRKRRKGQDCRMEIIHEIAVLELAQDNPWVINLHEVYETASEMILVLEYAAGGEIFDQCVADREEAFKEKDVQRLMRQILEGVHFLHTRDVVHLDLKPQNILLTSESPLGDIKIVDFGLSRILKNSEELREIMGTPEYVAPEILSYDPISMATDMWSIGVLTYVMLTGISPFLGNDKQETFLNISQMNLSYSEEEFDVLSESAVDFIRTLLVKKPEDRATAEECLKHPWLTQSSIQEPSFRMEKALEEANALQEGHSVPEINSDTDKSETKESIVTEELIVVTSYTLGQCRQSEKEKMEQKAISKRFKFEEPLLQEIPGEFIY

[19] = target: Serine/threonine-protein kinase B-raf (Homo sapiens) (UniProt P15056); assay: Inhibition of BRAF (unknown origin) at 1 uM by KINOMEscanning assay relative to control; values are per cent of control
Chain of Serine/threonine-protein kinase B-raf (Homo sapiens) (P15056 whole entry): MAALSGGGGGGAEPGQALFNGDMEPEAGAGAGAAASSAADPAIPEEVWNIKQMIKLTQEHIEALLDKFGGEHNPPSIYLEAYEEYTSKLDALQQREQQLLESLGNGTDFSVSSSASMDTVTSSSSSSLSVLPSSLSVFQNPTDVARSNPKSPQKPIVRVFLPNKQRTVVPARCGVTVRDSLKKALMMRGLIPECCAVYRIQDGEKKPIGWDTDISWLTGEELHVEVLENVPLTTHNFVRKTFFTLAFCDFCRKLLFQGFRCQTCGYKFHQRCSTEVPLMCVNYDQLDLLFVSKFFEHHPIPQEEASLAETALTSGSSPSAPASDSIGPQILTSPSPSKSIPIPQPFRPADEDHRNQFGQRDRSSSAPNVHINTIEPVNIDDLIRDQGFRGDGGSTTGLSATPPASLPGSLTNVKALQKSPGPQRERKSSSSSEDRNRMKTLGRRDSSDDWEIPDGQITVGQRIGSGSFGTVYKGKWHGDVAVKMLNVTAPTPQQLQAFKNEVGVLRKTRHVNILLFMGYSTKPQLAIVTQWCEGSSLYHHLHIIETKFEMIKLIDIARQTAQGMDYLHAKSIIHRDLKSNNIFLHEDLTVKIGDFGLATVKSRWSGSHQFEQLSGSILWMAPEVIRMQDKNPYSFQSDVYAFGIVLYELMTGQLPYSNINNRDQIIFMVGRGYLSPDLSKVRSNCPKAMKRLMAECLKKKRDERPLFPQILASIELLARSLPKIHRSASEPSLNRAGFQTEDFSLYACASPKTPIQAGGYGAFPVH

Chain of Dual specificity mitogen-activated protein kinase kinase 2 (Homo sapiens) (P36507 whole entry): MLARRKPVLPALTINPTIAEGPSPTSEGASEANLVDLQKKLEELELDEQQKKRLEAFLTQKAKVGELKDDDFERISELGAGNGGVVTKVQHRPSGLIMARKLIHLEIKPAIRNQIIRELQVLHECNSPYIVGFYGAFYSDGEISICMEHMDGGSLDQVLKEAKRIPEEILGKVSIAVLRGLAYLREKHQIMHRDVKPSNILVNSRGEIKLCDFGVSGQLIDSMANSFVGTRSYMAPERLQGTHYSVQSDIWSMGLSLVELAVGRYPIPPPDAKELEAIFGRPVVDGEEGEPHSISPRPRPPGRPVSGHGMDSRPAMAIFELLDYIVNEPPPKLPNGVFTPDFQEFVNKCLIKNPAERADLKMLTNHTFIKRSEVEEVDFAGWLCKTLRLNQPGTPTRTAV

SMILES | residual activity [1] | residual activity [2] | residual activity [3] | residual activity [4] | residual activity [5] | residual activity [6] | residual activity [7] | residual activity [8] | residual activity [9] | residual activity [10] | residual activity [11] | residual activity [12] | residual activity [13] | residual activity [14] | residual activity [15] | IC50 [16] | inhibition [17] | residual activity [18] | residual activity [19]
COc1ccc(-c2c[nH]c3ncc(-c4cc(OC)c(OC)c(OC)c4)cc23)cc1OC | 93% | 95% | 84% | 59% | 82% | 88% | 98% | 86% | 100% | 97% | 76% | 61% | 45% | 68% | 83% | 8.8 nM | Active | 0.95% | 78%
COc1ccc(-c2cnc3[nH]cc(-c4ccc(OC)c(OC)c4)c3c2)cc1N | 90% | 98% | 92% | 21% | 78% | 88% | 92% | 51% | 93% | 79% | 91% | 71% | 16% | 43% | 88% | 25.6 nM | Active | 2.4% | 83%
COc1cc(-c2c[nH]c3ncc(-c4cccc(N)c4)cc23)cc(OC)c1OC | 74% | 90% | 100% | 65% | 34% | 23% | 87% | 80% | 100% | 96% | 100% | 53% | 68% | 70% | 89% | 97.7 nM | Active | 86% | 28%
COc1ccc(-c2cnc3[nH]cc(-c4ccc(OC)c(OC)c4)c3c2)cc1OC | 92% | 100% | 89% | 16% | 88% | 93% | 100% | 35% | 96% | 96% | 65% | 63% | 36% | 70% | 85% | 2.1 nM | Active | 0.2% | 81%
COc1ccc(-c2c[nH]c3ncc(-c4ccc(C(=O)N5CCOCC5)c(N)c4)cc23)cc1OC | 72% | 84% | 90% | 36% | 66% | 100% | 100% | 53% | 94% | 79% | 31% | 62% | 17% | 73% | 87% | 8.5 nM | – | 0.25% | 78%
